{"source": "patent US20100247645A1", "about": "(priority 2007, published 2010)", "origin": "cited, not measured here", "details": "class 3 = high solubility, low permeability", "data": [{"smiles": "COCCCOc1cc(C[C@@H](C[C@H](N)[C@@H](O)C[C@H](C(=O)NCC(C)(C)C(N)=O)C(C)C)C(C)C)ccc1OC", "note": "[Aliskiren, 2(S),4(S),5(S),7(S)—N-(3-amino-2,2-dimethyl-3-oxopropyl)-2,7-di(1-methylethyl)-4-hydroxy-5-amino-8-[4-methoxy-3-(3-methoxy-propoxy)phenyl]-octanamide]", "values": [{"measurement": "BCS (biopharmaceutical classification system) class", "value": "class 3"}]}]}
